Where two headings read alike, the source gives them in different places.
Assays:
[1] = system: NMDA receptors; settings: concentration giving complete protection of neurons against 200 μM NMA, cell culture; cited from earlier work
[2] = system: rats with sciatic nerve ligation; assay: Sciatic nerve ligation model of neuropathic pain, paw lifting latency to thermal stimulus; type: in vivo, rat
From the text: In all experiments, one hind limb of the rat has undergone a surgical operation in which a loop (“ligature”) of suture material was placed around the sciatic nerve and gently tightened. Over the course of several days, this caused chronic irritation to the nerve, driving it into a “hyper-sensitized” condition of the type which occurs in damaged neuronal circuits that cause neuropathic pain in humans.
After the nerve ligation operation, a waiting period of 8 days elapsed, to allow the ligated limb to reach a peak of hypersensitized chronic irritation of the ligated sciatic nerve. This sciatic nerve model was first described by Bennet and Xie 1988, and is widely regarded as a useful animal model for studying neuropathic pain.
To test the degree of sensitivity in the ligated limb vs. the unoperated limb, a beam of light (thermal stimulus) is applied to the soles (i.e., the undersurface area which is not covered by fur) of the hind paws, by shining a focused beam of light onto the sole, through the glass floor of a testing chamber. This beam was sufficiently hot to generate some discomfort, without posing any risk of burning the paw. The number of seconds that elapsed after commencement of the thermal stimulus, until the rat lifted up the paw, were detected electronically and recorded automatically.
Each limb is tested initially for thermal pain sensitivity, before the ligation operation is performed (pre-surgery), to ensure that both limbs had the same degree of pain sensitivity. After 8 days following surgery, each limb was tested again, before any treatment was given (pre-treatment), to ensure that the nerve ligature successfully provoked a hyper-irritable condition in the ligated limb. After drug treatment (at time=0, on the graphs), each limb was tested for thermal pain sensitivity at hourly intervals, for 4 hours.
The first set of in vivo tests involved sciatic nerve ligation in rats, using procedures described in Bennett and Xie, Pain 33: 87-107 (1988). This test involves surgically placing and tightening a loop of suture material around the sciatic nerve in one hind leg of a rat; the other hind leg serves as a control. Within about a week, the ligated sciatic nerve becomes irritated and reaches a hyper-responsive “kindled” state, where it will respond rapidly to even a mild stimulus that is not painful to an untampered leg. As such, it offers a model of what happens in pain pathways that have become pathologically hypersensitized in a human suffering from neuropathic pain.
In these tests, on the 8th day after surgery, the rat is placed in a testing device which electronically measures how quickly or slowly it acts, in lifting up a paw in response to a standardized mild warming (thermal) stimulus. The warming stimulus is generated by a light beam which shines onto the bottom surface of the paw, through the glass floor of the testing enclosure. The device is electronically controlled and automated, and measurements are made of the number of seconds that elapse after the light beam begins to shine on the bottom of the paw, until the rat lifts its paw.
To establish baseline values for pain sensitivity of each limb in each group of animals, each limb was tested initially for thermal pain sensitivity before the ligation operation was performed (pre-surgery). After 8 days, each limb was again tested before any drug treatment was administered (shown by the “pre-treatment” legend in all graphs). After drug administration, each limb was tested for thermal pain sensitivity at hourly intervals, for 4 hours.
Saline controls and all drugs were administered by intraperitoneal (IP) injection, i.e., hypodermic injection into the abdominal region. This is a convenient and reliable method of drug administration, for tests involving rats.
The test results are shown graphically in the Figures; each circle indicates the mean value, and the vertical bars show the standard error of the mean (SEM). […]

[3] = system: rats; settings: from 0.5 hr after treatment for 1 hr
Method: To address these issues, rats with sciatic nerve ligations, and rats with only sham sciatic nerve ligations, were treated with various doses of ethopropazine, clonidine, or the two agents together. They were then evaluated, using the following battery of sensorimotor and activity tests:
(5) One Hour Activity Level.
Locomotor activity was evaluated beginning at 0.5 hr following drug treatment, and lasting for 1 hr. In this test, the rat was placed in a cage equipped with three pairs of photoelectric cells, placed at regular intervals across the width of the cage, so that the animal's activity was monitored by automatically recording the number of “beam breaks” registered as the animal moved about the cage.

[4] = system: rats; assay: Sensorimotor battery (plank, walking initiation, platform, inclined screen, activity); type: in vivo, rat; settings: treatment regimens that proved effective for relieving neuropathic pain; 1 hour post-treatment
Method: Testing was done at 1 hour post-treatment, which corresponded with the time of peak effect of drugs on paw withdrawal latency. Briefly, the sensorimotor battery consisted of five tests (Wozniak et al 1990) that are known to be able to detect significant muscle weakness, incoordination, somnolence, or other behavioral impairments.
For all of the tests in this sensorimotor battery, all treatment groups first received a habituation trial, to allow each rat to acclimate to the test situation. In all tests, protective padding was placed under any elevated apparatuses, to prevent pain or injury from falling. The tests performed were as follows:
A rat was timed for how long it could remain on a wooden plank that is 3 cm wide, elevated 61 cm above the floor.
Each rat was placed in the middle of a square outlined by white cloth tape (50×50 cm) on a smooth black surface of a large table top, and was timed for how long was required for the rat to leave the square (place all four paws outside the square).
Each rat was timed for how long it could remain perched on an elevated (61 cm above the floor) platform of small dimensions (7.6×15.2 cm).
Each rat was placed in the middle of an elevated (61 cm above the floor) wire mesh grid (8 squares per 10 cm) which was inclined at 60 degrees with the floor. […]

[5] = target: NMDA receptors; settings: concentration suppressing MK-801 binding by 50%, cited from earlier work
[6] = system: NMDA receptors; assay: Protection of neurons in cell culture against 200 μM NMA (Olney et al 1987); type: cell-based; settings: ratio of protective concentrations
Method: In Table 1, the “protective concentration” for each compound was the micromolar concentration of that compound which provided complete protection for neurons, in cell culture tests, against a 200 μM concentration of NMA (i.e., a racemic mixture of the D and L stereoisomers of N-methyl-aspartate; the D isomer, which makes up 50% of the racemic mixture, is highly toxic to neurons, while the L isomer is somewhat less toxic).

[7] = clonidine alone, IP, 0.075 mg/kg

OC(CCN1CCCC1)(c1ccccc1)C1CCCCC1 (centres unmarked) [Procyclidine]
Protective concentration [1]: 15 µM

CN(C)CCOC(c1ccccc1)c1ccccc1 [Diphenhydramine]
Protective concentration [1]: 250 µM

CCN(CC)C(C)CN1c2ccccc2Sc2ccccc21 (centres unmarked) [Ethopropazine]
paw lifting latency curves of ligated and control limbs ([2]; ethopropazine alone, FIGS. 2B and 2C (20 and 30 mg/kg), 2 and 3 hour testing times): both curves rose, substantially
pain sensitivity (paw lifting latency) ([2]; ethopropazine alone, IP, 50 mg/kg, FIG. 2D): significantly changed the level of pain sensitivity in the ligated limb
pain sensitivity (paw lifting latency) ([2]; ethopropazine alone, IP, 10 to 30 mg/kg, FIG. 2): did not significantly change the pain sensitivity in either limb
activity level ([3]; ethopropazine alone, 50 mg/kg): significantly reduced activity level
Protective concentration [1]: 25 µM
performance on sensorimotor tests [4]: None of the ethopropazine or combined ethopropazine-plus-clonidine treatment regimens that proved effective for relieving neuropathic pain was associated with any impaired performance

CNCCCN1c2ccccc2CCc2ccccc21 [Desipramine]
IC50 [5]: 7.41 ± 1.32 µM

CN(C)CCCN1c2ccccc2Sc2ccc(Cl)cc21 [Chlorpromazine]
IC50 [5]: 45.9 ± 11.5 µM

OC(CCN1CCCCC1)(c1ccccc1)C1CCCCC1 (centres unmarked) [Trihexyphenidyl]
Protective concentration [1]: 125 µM

c1ccc(C2(N3CCCCC3)CCCCC2)cc1 [phencyclidine]
potency relative to ethopropazine (times more potent) [6]: 50 times
potency relative to procyclidine (times more potent) [6]: 30 times
Protective concentration [1]: 0.5 µM

CNC1(c2ccccc2Cl)CCCCC1=O (centres unmarked) [Ketamine]
IC50 ([5]; comparator in text): 1.02 ± 0.33 µM
potency relative to ethopropazine (times more potent) [6]: 5 times
potency relative to procyclidine (times more potent) [6]: 3 times
Protective concentration [1]: 5 µM

OC(CCN1CCCCC1)(c1ccccc1)C1CC2C=CC1C2 (centres unmarked) [Biperiden]
Protective concentration [1]: 200 µM

Clc1cccc(Cl)c1N=C1NCCN1 [clonidine]
relief of neuropathic pain ([2]; clonidine alone, IP, 0.025 mg/kg and 0.05 mg/kg): no significant relief of neuropathic pain
relief of neuropathic pain [2, 7]: significant and relatively sustained neuropathic pain relief
sedation observed [2, 7]: significant sedation
activity level ([3]; clonidine alone, 0.050 mg/kg): reduce activity levels, but only slightly and to a barely significant degree
activity level ([3]; clonidine alone, 0.075 mg/kg): substantially reduced activity levels

CN1[C@@H]2C[C@@H](OC(=O)[C@H](CO)c3ccccc3)C[C@H]1[C@@H]1O[C@@H]12 [Scopolamine]
Protective concentration [1]: >3000 µM

CNCCC=C1c2ccccc2CCc2ccccc21 [Nortriptyline]
IC50 [5]: 21 ± 0.67 µM

— patent US20020177592A1, “Combination of adrenergic agonist and tricyclo-alkylamine for relieving chronic pain without adverse side effects” (priority 1998, published 2002)
